These results are taken from PubChem BioAssay AID1996.

Usually solubility (kinetic) stands for the concentration staying in solution when a stock, usually in DMSO, is diluted into the medium.

The structures appear in SMILES notation. Values after ≈ are worked out from the molar mass of the structure shown. Some results are limits rather than exact numbers.

The conditions of the series: buffer; pH 7.4; 200.0 µM.
For `CCOc1ccc(CNCCN2CCCC2)cc1.O=C(O)C(=O)O`, the kinetic solubility stood at 28.2 µg/mL.

In turn, `COc1ccc(NC(=O)O/N=C/c2ccc(N(C)C)cc2)cc1` displayed a solubility (kinetic) of 2.8 µg/mL (≈ 8.94 µM).

For the compound `Cn1c(O)c(/C=N/NC(=O)c2ccncc2)c(=O)[nH]c1=S`, the solubility (kinetic) is greater than 45.8 µg/mL.

`Nc1nc2c(Cl)cc(Cl)cc2s1` registered a solubility (kinetic) of 7.4 µg/mL (≈ 33.8 µM).

The compound `CCOC(=O)Cc1ccc(NC(=O)c2ccc([N+](=O)[O-])cc2)cc1` showed a kinetic solubility of 1 µg/mL (≈ 3.05 µM).

Consider `O=C(CCCCC(=O)Nc1c(I)cc(I)c(C(=O)O)c1I)Nc1c(I)cc(I)c(C(=O)O)c1I`, for which the solubility (kinetic) is greater than 171 µg/mL.

The compound `COc1ccc(OC)c(Nc2ncnc3sccc23)c1` showed a kinetic solubility of 42.2 µg/mL (≈ 147 µM).

Compound `CC(=O)c1cccc(NC(=O)c2cnccn2)c1` showed a solubility (kinetic) greater than 36.2 µg/mL.

As to `COc1ccc(C(=O)Nc2ccc(NC(=O)C3CCCCC3)nc2)cc1`, the solubility (kinetic) came out at 0.4 µg/mL (≈ 1.13 µM).

`CCOC(=O)c1c(-c2cccc(N)c2)cn2ccccc12` displayed a solubility (kinetic) of 35.1 µg/mL (≈ 125 µM).

`O=[N+]([O-])c1ccccc1OCCN1CCOCC1`: the solubility (kinetic) was greater than 37.8 µg/mL.

As to `CCOC(=O)c1sc(S(C)(=O)=O)c2c1CCc1conc1-2`, the solubility (kinetic) is 4 µg/mL (≈ 12.2 µM).

For `Cc1ccc(C(=O)NCC(=O)Nc2ccncc2)s1`, the solubility (kinetic) is greater than 41.3 µg/mL.

`CCn1cc(CCCC(=O)NCc2ccccc2OC)c2ccccc21` returned a solubility (kinetic) of 10.2 µg/mL (≈ 29.1 µM).

Take `OC(CNCc1cccs1)c1ccccc1` (centres undefined): the solubility (kinetic) was greater than 35 µg/mL.

For `CC(=O)Nc1nc(-c2cccc3ccccc23)cs1`, the solubility (kinetic) was 5.3 µg/mL (≈ 19.8 µM).

On to `COc1ccc(C(=O)C2CCCN(C(=O)c3cnsn3)C2)c(C)c1` (centres undefined), for which the kinetic solubility was determined as 40 µg/mL (≈ 116 µM).

`Cc1nc2ccc(C(=O)Nc3ccc(N(C)C)cc3)cc2s1` registered a kinetic solubility of 4.1 µg/mL (≈ 13.2 µM). This solubility kinetic lies about 9.8-fold lower than the previous one.

Compound `CN1CCN(S(=O)(=O)c2ccc3c(c2)CC(=O)N3C)CC1` returned a solubility (kinetic) greater than 46.4 µg/mL.

Regarding `CCC(C)[C@H](NC(=O)Nc1ccc2c(c1)OCCO2)C(=O)OC` (some centres undefined), the kinetic solubility is greater than 48.4 µg/mL.

For `COc1ccccc1Nc1c2c(nc3ccc(N)cc13)CCCC2`, the kinetic solubility amounted to 47.2 µg/mL (≈ 148 µM).

In turn, `O=S(=O)(c1ccc(Cl)cc1)N1CCC(n2cccc2)CC1` gave a solubility (kinetic) of 0.6 µg/mL (≈ 1.85 µM).

The compound `COc1cccc(C(=O)Nc2sc3c(c2C(=O)O)CCCC3)c1` came in with a solubility (kinetic) greater than 49.7 µg/mL.

With `O=C(NCCCN1CCOCC1)c1cn(-c2ccccc2)nc1-c1ccc(F)cc1`, the kinetic solubility was greater than 61.3 µg/mL.

For `O=C(Cc1ccccc1)Nc1cc2c(cc1Cl)OCCCO2`, the kinetic solubility is 5.5 µg/mL (≈ 17.3 µM).

Consider `COc1ccc(C2Nc3ccccc3C(=O)N2NC(C)=O)cc1OC` (centres undefined), for which the kinetic solubility is greater than 51.2 µg/mL.

`COc1cccc(OC)c1OCCOCCN1CCN(C)CC1` showed a kinetic solubility of 48.6 µg/mL (≈ 150 µM).

As to `Cc1nn(CC(=O)NCc2cccc(F)c2)c(=O)c2cccn12`, the kinetic solubility was greater than 47.1 µg/mL.

Consider `CCn1cnc2c1c(=O)[nH]c(=O)n2Cc1ccccc1`, for which the kinetic solubility turned out to be 34.6 µg/mL (≈ 128 µM).

In the case of `CC1CCN(C(=O)CSc2nnc(N)s2)CC1`, the kinetic solubility is greater than 40.9 µg/mL.

For the compound `Cc1cc(NC(=O)c2ccco2)sc1C`, the solubility (kinetic) is greater than 33.2 µg/mL.

`CSc1ncc2c(=O)[nH]c(-c3ccccc3)nc2n1` showed a solubility (kinetic) greater than 40.5 µg/mL.

Regarding `CC(=O)NCCc1nc2cc(NC(=O)c3ccc(Cl)cc3)ccc2n1C`, the solubility (kinetic) came to 35.7 µg/mL (≈ 96.3 µM).

In turn, `Cn1c(N)c(C(=O)COC(=O)C2CCCN2C(=O)c2cccs2)c(=O)n(C)c1=O` (centres undefined) yielded a kinetic solubility of 56.8 µg/mL (≈ 135 µM). Compared with the last compound, the solubility kinetic is about 1.6-fold higher.

`O=S(=O)(c1ccc(F)cc1)N1CN2CCN(C2)C1`: the solubility (kinetic) was greater than 40.7 µg/mL.

Turning to `O=C(N/C(=C/c1cccnc1)C(=O)N1CCOCC1)c1ccccc1F`, the solubility (kinetic) is greater than 53.3 µg/mL.

The compound `O=[N+]([O-])c1ccccc1S(=O)(=O)NC1CC2CCC1C2` (centres undefined) displayed a kinetic solubility greater than 44.5 µg/mL.

The compound `O=C(OCC(=O)N1CCOCC1)c1cc(F)c(F)cc1Cl` yielded a kinetic solubility greater than 48 µg/mL.

`COC(=O)CN1C(=O)c2cccc3cccc1c23` came in with a kinetic solubility greater than 36.2 µg/mL.

Consider `CN1CCN(CCC(=O)Nc2ccc(Br)cc2)CC1`, for which the solubility (kinetic) amounted to 48.5 µg/mL (≈ 149 µM).

Turning to `COc1ccc(NC(=S)NC(C)c2ccncc2)cc1OC` (centres undefined), the kinetic solubility was found to be 46.7 µg/mL (≈ 147 µM).

The compound `CN(c1ccccc1)S(=O)(=O)c1ccc(NC(=O)C2CC2)cc1` returned a solubility (kinetic) of 2.3 µg/mL (≈ 6.96 µM).

`CC(=O)Nc1ccc(N/C=C/C(=O)c2ccc(Br)cc2)cc1`: the solubility (kinetic) turned out to be 1 µg/mL (≈ 2.78 µM).

Turning to `C=CCc1ccccc1Oc1cc(OC)nc(N)n1`, the kinetic solubility was greater than 38.6 µg/mL.

In the case of `O=C(Nc1ccn([C@H]2CC[C@@H](CO)O2)c(=O)n1)c1ccccc1`, the solubility (kinetic) was greater than 47.3 µg/mL.

Turning to `O=C(Nc1ccccc1)N1CCc2c([nH]c3ccccc23)C1C(F)(F)F` (centres undefined), the solubility (kinetic) came out at 1.8 µg/mL (≈ 5.01 µM).

On to `Cc1nc(COc2cccc(Cl)c2)sc1C(=O)/C=C/N(C)C`, for which the kinetic solubility is greater than 50.5 µg/mL.

`COc1ccc(CNC(=S)Nc2ccc(Br)cc2)cc1`: the kinetic solubility was less than 0.4 µg/mL.

For `CC(C)[C@H](NS(=O)(=O)c1ccccc1F)C(=O)OCC(=O)Nc1cccc(S(N)(=O)=O)c1`, the kinetic solubility was greater than 73.1 µg/mL.

In the case of `Nc1nc(SC23CC4CC(CC(C4)C2)C3)ns1`, the kinetic solubility is less than 0.2 µg/mL.

As to `CCN1C(=O)Nc2cccc3cccc1c23`, the kinetic solubility is 4.9 µg/mL (≈ 23.1 µM).

In turn, `CC1CCN(c2cc(Br)c([N+](=O)[O-])cc2F)CC1` returned a kinetic solubility of 3.1 µg/mL (≈ 9.77 µM).

Turning to `CCC(=O)Nc1cc2c3c(c1)CCC(=O)N3CCC2`, the solubility (kinetic) is greater than 38.7 µg/mL.

`O=C(Nc1ccsc1C(=O)O)c1ccccc1Cl` registered a solubility (kinetic) greater than 42.3 µg/mL.

In the case of `O=C(/C=C/c1cccc(F)c1)N1CCN(c2ncccn2)CC1`, the solubility (kinetic) stood at 12.4 µg/mL (≈ 39.7 µM).

Take `Fc1ccc(N2CCN(Cc3cnc(Cl)s3)CC2)cc1`: the kinetic solubility came to 45.9 µg/mL (≈ 147 µM).

The compound `COc1cc2c(cc1OC)CN(C(=O)c1ccc(Cl)c(S(=O)(=O)N3CCCC3)c1)CC2` came in with a solubility (kinetic) greater than 69.7 µg/mL.

Compound `O=C(O)C(=O)O.c1ccc(COc2cccc(CN3CCCCC3)c2)cc1` returned a solubility (kinetic) of 46.2 µg/mL.

`CN(C)C(=O)Oc1ccnc2cc(Cl)ccc12` had a solubility (kinetic) greater than 37.6 µg/mL.

Take `CC1CCN(C(=O)CCCC(=O)N2CCC(C)CC2)CC1`: the solubility (kinetic) was greater than 44.2 µg/mL.

For `COc1cccc(C(=O)CC(=O)C(=O)Nc2cccc([N+](=O)[O-])c2C)c1`, the solubility (kinetic) was determined as 31.6 µg/mL (≈ 88.7 µM).

As for `CC1CCN(C(=O)COC(=O)c2cn(C)c3ccccc23)CC1`, the solubility (kinetic) was greater than 47.2 µg/mL.

Take `CN1C2CCC1CC(NC(=O)c1cccc(C(F)(F)F)c1)C2` (centres undefined): the kinetic solubility was greater than 46.9 µg/mL.

With `O=C(NC(=S)Nc1ccccc1N1CCCC1)c1ccco1`, the kinetic solubility is 25.3 µg/mL (≈ 80.2 µM).

In turn, `CC1(C)CCC(=O)N(c2ccc(OC(F)(F)F)cc2)C1=O` registered a kinetic solubility greater than 45.2 µg/mL.

As to `Fc1ccccc1COc1ccc(C(=S)N2CCCC2)cc1`, the kinetic solubility turned out to be 3.5 µg/mL (≈ 11.1 µM).

Consider `Cc1ncc([N+](=O)[O-])n1CC(=O)Nc1ccc(F)c(Cl)c1`, for which the kinetic solubility was 0.5 µg/mL (≈ 1.6 µM).

For the compound `CCCCCC1CCC(C(=O)N2CCOCC2)CC1` (centres undefined), the kinetic solubility worked out at 27.7 µg/mL (≈ 104 µM). Against the preceding compound, the solubility kinetic is about 55-fold higher.

For `O=CNCCCc1nc2ccccc2n1CCc1ccccc1`, the solubility (kinetic) is greater than 46.1 µg/mL.

Take `O=C(COC(=O)C1=COCCO1)NCc1ccc(Cl)cc1`: the solubility (kinetic) was found to be 44.7 µg/mL (≈ 143 µM).

The compound `Cc1cc(-c2ccccc2)n2ncnc2n1` had a kinetic solubility greater than 31.5 µg/mL.

With `COc1ccccc1C(=O)OC1CCCN(C)C1.Cl` (centres undefined), the solubility (kinetic) is greater than 42.9 µg/mL.

`O=C(COC(=O)Cc1ccccc1F)NCc1ccc(Cl)cc1` registered a solubility (kinetic) of 17.5 µg/mL (≈ 52.1 µM).

As for `Cc1c2c(nc3ccccc13)CC(C)(C)CC2=O.Cl`, the kinetic solubility amounted to 36.8 µg/mL. This solubility kinetic is about 2.1-fold higher than that of the compound before.
